Test results published in patent US20090304692A1, “TRIAZINE COMPOUNDS AS PI3 KINASE AND MTOR INHIBITORS” (Wyeth, priority 2008, published 2009).
Values joined by “and” are separate entries in the source; they are usually repeats but may differ in a detail not shown here. Equal entries are not always repeated. Where two headings read alike, the source gives them in different places.

Columns and labels:
[1] = molecular target: PI3K-α (Homo sapiens, UniProt P42336); test: PI3K-alpha fluorescence polarization assay; conditions: read-out: IC50 PI3Kα
Sequence of PI3K-α (P42336 whole entry, species assumed): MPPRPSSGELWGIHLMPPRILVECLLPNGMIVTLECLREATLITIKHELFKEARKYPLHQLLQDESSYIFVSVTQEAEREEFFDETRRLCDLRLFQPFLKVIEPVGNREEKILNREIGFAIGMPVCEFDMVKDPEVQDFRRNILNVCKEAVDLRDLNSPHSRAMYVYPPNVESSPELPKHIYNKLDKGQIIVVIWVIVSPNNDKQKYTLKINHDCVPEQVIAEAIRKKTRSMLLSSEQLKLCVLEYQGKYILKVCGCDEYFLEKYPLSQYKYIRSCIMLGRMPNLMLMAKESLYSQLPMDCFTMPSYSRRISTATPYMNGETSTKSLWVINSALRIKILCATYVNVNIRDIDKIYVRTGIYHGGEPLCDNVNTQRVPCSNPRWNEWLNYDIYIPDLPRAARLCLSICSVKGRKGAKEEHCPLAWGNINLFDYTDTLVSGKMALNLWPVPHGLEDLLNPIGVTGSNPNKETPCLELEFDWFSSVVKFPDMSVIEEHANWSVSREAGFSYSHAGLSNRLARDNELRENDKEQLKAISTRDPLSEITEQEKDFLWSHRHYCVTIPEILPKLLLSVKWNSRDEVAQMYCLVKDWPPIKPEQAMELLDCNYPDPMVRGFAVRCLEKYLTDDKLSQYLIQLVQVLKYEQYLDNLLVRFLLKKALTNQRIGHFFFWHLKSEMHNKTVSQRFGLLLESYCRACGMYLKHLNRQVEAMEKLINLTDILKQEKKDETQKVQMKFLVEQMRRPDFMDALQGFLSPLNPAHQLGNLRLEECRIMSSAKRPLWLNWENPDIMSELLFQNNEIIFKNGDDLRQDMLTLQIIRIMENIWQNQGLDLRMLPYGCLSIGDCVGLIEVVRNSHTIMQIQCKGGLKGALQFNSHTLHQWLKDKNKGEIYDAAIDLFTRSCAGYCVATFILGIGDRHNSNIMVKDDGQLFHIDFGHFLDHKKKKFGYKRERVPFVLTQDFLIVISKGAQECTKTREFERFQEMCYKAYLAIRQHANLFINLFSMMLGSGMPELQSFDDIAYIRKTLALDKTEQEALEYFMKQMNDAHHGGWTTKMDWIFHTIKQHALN
Sequence of PI3K-α (P27986 whole entry partner, species assumed): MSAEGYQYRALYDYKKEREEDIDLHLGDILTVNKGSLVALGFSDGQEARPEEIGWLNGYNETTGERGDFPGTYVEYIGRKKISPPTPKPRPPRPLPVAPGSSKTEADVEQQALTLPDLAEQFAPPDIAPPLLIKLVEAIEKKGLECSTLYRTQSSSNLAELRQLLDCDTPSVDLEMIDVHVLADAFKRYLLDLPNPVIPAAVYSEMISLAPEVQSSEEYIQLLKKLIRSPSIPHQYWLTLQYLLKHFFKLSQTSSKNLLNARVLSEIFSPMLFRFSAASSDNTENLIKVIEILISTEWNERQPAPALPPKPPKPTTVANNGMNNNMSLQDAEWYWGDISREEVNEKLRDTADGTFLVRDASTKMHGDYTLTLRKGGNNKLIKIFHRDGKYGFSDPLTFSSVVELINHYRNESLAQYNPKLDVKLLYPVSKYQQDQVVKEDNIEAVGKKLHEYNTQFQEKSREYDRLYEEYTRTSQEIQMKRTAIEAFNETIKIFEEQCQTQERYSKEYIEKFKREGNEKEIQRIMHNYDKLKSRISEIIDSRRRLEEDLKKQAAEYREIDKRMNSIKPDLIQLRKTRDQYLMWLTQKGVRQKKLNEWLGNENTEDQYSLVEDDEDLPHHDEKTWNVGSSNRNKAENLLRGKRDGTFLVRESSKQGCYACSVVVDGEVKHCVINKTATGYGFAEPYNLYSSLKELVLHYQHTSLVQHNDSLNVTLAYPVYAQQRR

[2] = system: human prostate PC3-mm2 tumor cell line; test: In vitro cell culture growth assay (MTS), PC3-mm2; type: cell-based; conditions: Homo sapiens, PC3MM2, 72 h, MTS cell growth assay, three days after drug treatment, read-out: IC50 PC3-mm2
[3] = molecular target: Human mTOR (FLAG-TOR) (Homo sapiens, UniProt P42345); test: mTOR kinase assay (DELFIA format, purified enzyme); type: biochemical
Sequence of Human mTOR (FLAG-TOR) (P42345 1360-2549 limits assumed): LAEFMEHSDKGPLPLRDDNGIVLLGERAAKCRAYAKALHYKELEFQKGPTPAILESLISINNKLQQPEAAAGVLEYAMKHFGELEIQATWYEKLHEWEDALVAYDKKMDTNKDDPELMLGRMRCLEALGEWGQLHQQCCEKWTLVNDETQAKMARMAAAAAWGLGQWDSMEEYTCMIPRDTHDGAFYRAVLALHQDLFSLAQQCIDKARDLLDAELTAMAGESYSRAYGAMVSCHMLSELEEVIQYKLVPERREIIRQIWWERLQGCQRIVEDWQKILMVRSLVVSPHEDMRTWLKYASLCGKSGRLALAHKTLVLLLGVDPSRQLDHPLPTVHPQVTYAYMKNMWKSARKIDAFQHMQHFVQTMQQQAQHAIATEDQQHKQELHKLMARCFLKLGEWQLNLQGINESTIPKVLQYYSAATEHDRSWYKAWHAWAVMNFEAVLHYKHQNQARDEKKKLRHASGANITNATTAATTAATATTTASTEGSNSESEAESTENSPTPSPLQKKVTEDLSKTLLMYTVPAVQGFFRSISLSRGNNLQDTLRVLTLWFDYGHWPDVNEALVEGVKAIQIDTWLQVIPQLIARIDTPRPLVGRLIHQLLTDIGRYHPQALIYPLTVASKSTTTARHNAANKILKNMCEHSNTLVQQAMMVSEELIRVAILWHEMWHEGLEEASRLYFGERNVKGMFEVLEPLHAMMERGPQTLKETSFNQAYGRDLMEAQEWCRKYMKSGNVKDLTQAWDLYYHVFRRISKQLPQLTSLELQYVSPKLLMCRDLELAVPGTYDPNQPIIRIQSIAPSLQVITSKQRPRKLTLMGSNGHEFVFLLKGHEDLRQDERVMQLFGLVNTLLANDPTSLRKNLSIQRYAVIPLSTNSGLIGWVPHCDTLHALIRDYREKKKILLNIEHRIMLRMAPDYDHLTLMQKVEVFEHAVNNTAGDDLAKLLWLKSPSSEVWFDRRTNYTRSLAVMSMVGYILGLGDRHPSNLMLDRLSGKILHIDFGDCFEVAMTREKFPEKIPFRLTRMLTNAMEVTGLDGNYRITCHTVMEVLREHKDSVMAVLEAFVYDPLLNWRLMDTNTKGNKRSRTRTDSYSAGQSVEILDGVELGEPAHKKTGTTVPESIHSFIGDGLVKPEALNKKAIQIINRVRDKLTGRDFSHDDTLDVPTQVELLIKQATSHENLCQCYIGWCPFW

[4] = molecular target: PI3K-γ (Homo sapiens, UniProt P48736); test: PI3K-gamma fluorescence polarization assay; conditions: read-out: IC50 PI3Kγ
Sequence of PI3K-γ (P48736 whole entry, species assumed): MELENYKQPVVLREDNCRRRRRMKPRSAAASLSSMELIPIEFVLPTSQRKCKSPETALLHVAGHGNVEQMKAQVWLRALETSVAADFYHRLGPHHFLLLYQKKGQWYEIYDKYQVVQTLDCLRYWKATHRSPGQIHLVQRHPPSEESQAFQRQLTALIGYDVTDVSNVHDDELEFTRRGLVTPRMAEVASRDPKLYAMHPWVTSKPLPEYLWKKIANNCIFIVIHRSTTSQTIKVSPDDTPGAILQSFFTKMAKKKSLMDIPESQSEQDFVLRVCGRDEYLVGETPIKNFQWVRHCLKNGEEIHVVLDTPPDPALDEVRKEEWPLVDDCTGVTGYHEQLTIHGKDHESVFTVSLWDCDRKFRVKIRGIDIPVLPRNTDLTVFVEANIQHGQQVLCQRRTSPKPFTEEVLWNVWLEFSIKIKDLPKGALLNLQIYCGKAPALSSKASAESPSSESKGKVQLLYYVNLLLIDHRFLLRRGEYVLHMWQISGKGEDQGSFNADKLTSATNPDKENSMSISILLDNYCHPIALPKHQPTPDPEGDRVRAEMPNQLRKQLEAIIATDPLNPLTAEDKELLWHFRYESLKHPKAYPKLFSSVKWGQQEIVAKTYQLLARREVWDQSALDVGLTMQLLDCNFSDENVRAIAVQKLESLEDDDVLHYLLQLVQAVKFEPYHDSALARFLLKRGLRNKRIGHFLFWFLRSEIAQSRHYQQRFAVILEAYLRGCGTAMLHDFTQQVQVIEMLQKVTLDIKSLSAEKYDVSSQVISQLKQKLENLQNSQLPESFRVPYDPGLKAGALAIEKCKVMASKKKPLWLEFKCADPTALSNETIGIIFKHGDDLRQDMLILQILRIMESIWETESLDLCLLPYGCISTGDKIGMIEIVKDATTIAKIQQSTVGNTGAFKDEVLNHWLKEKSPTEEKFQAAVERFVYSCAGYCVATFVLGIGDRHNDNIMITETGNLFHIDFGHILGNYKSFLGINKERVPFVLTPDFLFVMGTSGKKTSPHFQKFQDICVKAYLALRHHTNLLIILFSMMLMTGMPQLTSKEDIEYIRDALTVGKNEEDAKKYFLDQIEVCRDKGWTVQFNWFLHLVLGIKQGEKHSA

[5] = system: human breast MDA-MB-361 tumor cell line; test: In vitro cell culture growth assay (MTS), MDA-MB-361; type: cell-based; conditions: Homo sapiens, MTS cell growth assay, three days after drug treatment, read-out: IC50 MDA-MB-361
[6] = MDA-MB-361, 72 h, MDA-MB-361 cells

Row | SMILES | IC50 [1] [nM] | IC50 ([2]; PC3-mm2 cells) [nM] | IC50 [2] [nM] | IC50 ([3]; read-out: IC50 mTOR) | IC50 [4] [nM] | IC50 ([5]; MDA-MB-361, 72 h) [nM] | also measured
1 | CN(C)CCN(C)C(=O)c1ccc(NC(=O)Nc2ccc(-c3nc(C4=CCOCC4)nc(N4CCOCC4)n3)cc2)cc1 [Example 240, 4-[({4-[4-(3,6-dihydro-2H-pyran-4-yl)-6-morpholin-4-yl-1,3,5-triazin-2-yl]phenyl}carbamoyl)amino]-N-[2-(dimethylamino)ethyl]-N-methylbenzamide] | 1 | 12 | 12 | 1.6 nM | 6 |  | IC50 ([1]; listed as 506): 0.3 nM; IC50 ([4]; listed as 506): 7 nM; IC50 ([5]; 72 h, MDA-MB-361 cells): < 21.7 nM
2 | CCCCc1nc(-c2ccc(NC(=O)Nc3ccc(C(=O)N4CCC(N(C)C)CC4)cc3)cc2)nc(N2CCOCC2)n1 [Example 241, 1-[4-(4-butyl-6-morpholin-4-yl-1,3,5-triazin-2-yl)phenyl]-3-(4-{[4-(dimethylamino)piperidin-1-yl]carbonyl}phenyl)urea] | 6 |  | 135 | 9 nM | 23 | 24 | 
3 | C=Cc1ccc(NC(=O)Nc2ccc(-c3nc(N4CCOCC4)nc(N4C5CCC4COC5)n3)cc2)cc1 [Example 249, 1-(4-ethenylphenyl)-3-{4-[4-morpholin-4-yl-6-(3-oxa-8-azabicyclo[3.2.1]oct-8-yl)-1,3,5-triazin-2-yl]phenyl}urea] | 25 | 142 | 142 | 2 nM and 2.5 nM | 216 | 92 | IC50 ([4]; listed as 726): 216 nM
4 | CN1CCN(Cc2ccc(NC(=O)Nc3ccc(-c4nc(N5CCOCC5)nc(N5C6CCC5COC6)n4)cc3)cc2)CC1 [Example 250, 1-{4-[(4-methylpiperazin-1-yl)methyl]phenyl}-3-{4-[4-morpholin-4-yl-6-(3-oxa-8-azabicyclo[3.2.1]oct-8-yl)-1,3,5-triazin-2-yl]phenyl}urea] | 21 | 31 | 31 |  | 190 | 14 | IC50 ([3]; IC50 mTOR): 0.9 nM and 0.805 nM; IC50 ([4]; listed as 727): 190 nM; IC50 [5, 6]: 14 nM
5 | CN(C)CCOc1ccc(NC(=O)Nc2ccc(-c3nc(N4CCOCC4)nc(N4C5CCC4COC5)n3)cc2)cc1 [Example 266, 1-{4-[2-(dimethylamino)ethoxy]phenyl}-3-{4-[4-morpholin-4-yl-6-(3-oxa-8-azabicyclo[3.2.1]oct-8-yl)-1,3,5-triazin-2-yl]phenyl}urea] | 16 | < 31 |  | 1.7 nM and 1.85 nM | 93 |  | IC50 ([1]; listed as 729): 14.5 nM; IC50 ([4]; listed as 729): 100 nM; IC50 ([5]; 72 h, MDA-MB-361 cells): < 31 nM
6 | O=C(Nc1ccncc1)Nc1ccc(-c2nc(CCC3OCCCO3)nc(N3CCOCC3)n2)cc1 [Example 267, 1-(4-{4-[2-(1,3-dioxan-2-yl)ethyl]-6-morpholin-4-yl-1,3,5-triazin-2-yl}phenyl)-3-pyridin-4-ylurea] | 17 | 200 | 200 | 3.5 nM and 4.3 nM | 58 | 94 | IC50 ([1]; listed as 730): 15.5 nM; IC50 ([4]; listed as 730): 64.5 nM
7 | CCCCc1nc(-c2ccc(NC(=O)Nc3ccc(C(=O)N4CCC(Cc5ccccc5)CC4)cc3)cc2)nc(N2CCOCC2)n1 [Example 270, 1-{4-[(4-benzylpiperidin-1-yl)carbonyl]phenyl}-3-[4-(4-butyl-6-morpholin-4-yl-1,3,5-triazin-2-yl)phenyl]urea] | 68 |  | 953 | 160 nM | 318 | 397 | 
8 | CCc1nc(-c2ccc(NC(=O)Nc3ccc(C(=O)NC4CCN(C)CC4)cc3)cc2)nc(N2CCOCC2)n1 [Example 271, 4-({[4-(4-ethyl-6-morpholin-4-yl-1,3,5-triazin-2-yl)phenyl]carbamoyl}amino)-N-(1-methylpiperidin-4-yl)benzamide] | 2 |  | 129 | 13 nM | 23 | 68 | 
9 | CCCCc1nc(-c2ccc(NC(=O)Nc3ccc(C(=O)NC4CCN(C)CC4)cc3)cc2)nc(N2CCOCC2)n1 [Example 272, 4-({[4-(4-butyl-6-morpholin-4-yl-1,3,5-triazin-2-yl)phenyl]carbamoyl}amino)-N-(1-methylpiperidin-4-yl)benzamide] | 5 |  | 340 | 30 nM | 54 | 70 | 
10 | O=C(Nc1ccncc1)Nc1ccc(-c2nc(N3CCOCC3)nc(N3C4COCC3C(O)C4)n2)cc1 (stereo not shown) [Example 273, 1-{4-[4-(6-hydroxy-3-oxa-8-azabicyclo[3.2.1]oct-8-yl)-6-morpholin-4-yl-1,3,5-triazin-2-yl]phenyl}-3-pyridin-4-ylurea] | 4 |  | 80 | 0.8 nM | 33 | 32 | 
11 | CN(C)CCCc1nc(-c2ccc(NC(=O)Nc3ccncc3)cc2)nc(N2CCOCC2)n1 [Example 274, 1-(4-{4-[3-(dimethylamino)propyl]-6-morpholin-4-yl-1,3,5-triazin-2-yl}phenyl)-3-pyridin-4-ylurea] | 34 | 1490 | 1490 | 59 nM | 616 | 1000 | IC50 ([1]; listed as 731): 33 nM; IC50 ([4]; listed as 731): 413 nM

Further lines, with some results ahead:

Row | IC50 [1] [nM] | IC50 ([2]; PC3-mm2 cells) [nM] | IC50 [2] [nM] | IC50 ([3]; read-out: IC50 mTOR) | IC50 [4] [nM] | IC50 ([5]; MDA-MB-361, 72 h) [nM] | SMILES | also measured
12 | 3 | 67 | 67 | 11 nM and 9.4 nM | 15 | 22.3 | CCc1nc(-c2ccc(NC(=O)Nc3ccc(C(=O)N4CCN(C)CC4)cc3)cc2)nc(N2CCOCC2)n1 [Example 236, 1-[4-(4-ethyl-6-morpholin-4-yl-1,3,5-triazin-2-yl)phenyl]-3-{4-[(4-methylpiperazin-1-yl)carbonyl]phenyl}urea] | IC50 ([1]; listed as 536): 1.5 nM; IC50 ([4]; listed as 536): 13 nM; IC50 [5, 6]: 22.3 nM
13 | 2 |  | 69 | 3 nM | 23 | 28 | CCc1nc(-c2ccc(NC(=O)Nc3ccc(C(=O)NCCN(C)C)cc3)cc2)nc(N2CCOCC2)n1 [Example 237, N-[2-(dimethylamino)ethyl]-4-({[4-(4-ethyl-6-morpholin-4-yl-1,3,5-triazin-2-yl)phenyl]carbamoyl}amino)benzamide] | 
14 | 1 |  | 61 | 3.6 nM | 10 | 23 | CCc1nc(-c2ccc(NC(=O)Nc3ccc(C(=O)N4CCC(N(C)C)CC4)cc3)cc2)nc(N2CCOCC2)n1 [Example 238, 1-(4-{[4-(dimethylamino)piperidin-1-yl]carbonyl}phenyl)-3-[4-(4-ethyl-6-morpholin-4-yl-1,3,5-triazin-2-yl)phenyl]urea] | 
15 | 11 |  | 317 | 3.2 nM | 38 | 184 | CCCCc1nc(-c2ccc(NC(=O)Nc3ccc(CO)cc3)cc2)nc(N2CCOCC2)n1 [Example 239, 1-[4-(4-butyl-6-morpholin-4-yl-1,3,5-triazin-2-yl)phenyl]-3-[4-(hydroxymethyl)phenyl]urea] | 
16 | 2 |  | 49 | 7 nM | 24 | 11 | CCc1nc(-c2ccc(NC(=O)Nc3ccc(C(=O)N(C)CCN(C)C)cc3)cc2)nc(N2CCOCC2)n1 [Example 242, N-[2-(dimethylamino)ethyl]-4-({[4-(4-ethyl-6-morpholin-4-yl-1,3,5-triazin-2-yl)phenyl]carbamoyl}amino)-N-methylbenzamide] | 
17 | 22 |  | 747 | 18 nM | 184 | 219 | CCCCc1nc(-c2ccc(NC(=O)Nc3ccc(CNCCN(C)C)cc3)cc2)nc(N2CCOCC2)n1 [Example 252, 1-[4-(4-butyl-6-morpholin-4-yl-1,3,5-triazin-2-yl)phenyl]-3-[4-({[2-(dimethylamino)ethyl]amino}methyl)phenyl]urea] | 
18 | 8 |  | 574 | 9 nM | 267 | 12 | CCCCc1nc(-c2ccc(NC(=O)Nc3ccc(C(=O)Nc4ccc(N5CCN(C)CC5)cc4)cc3)cc2)nc(N2CCOCC2)n1 [Example 253, 4-({[4-(4-butyl-6-morpholin-4-yl-1,3,5-triazin-2-yl)phenyl]carbamoyl}amino)-N-[4-(4-methylpiperazin-1-yl)phenyl]benzamide] | 
19 | 48 |  | 328 | 16 nM | 85 | 174 | CCCCc1nc(-c2ccc(NC(=O)Nc3ccc(C=O)cc3)cc2)nc(N2CCOCC2)n1 [Example 255, 1-[4-(4-butyl-6-morpholin-4-yl-1,3,5-triazin-2-yl)phenyl]-3-(4-formylphenyl)urea] | 
